Structures can show the parent of a compound that is named as a salt. Where two headings read alike, the source gives them in different places.
Experiments:
iNOS = iNOS (Homo sapiens, UniProt P35228); assay: NOS activity: L-[3H]citrulline formation from L-[3H]arginine, iNOS; format: biochemical; settings: iNOS, 1 μM L-Arg, pH 7.5, room temperature, 30 minutes, read-out: iNOS (IC50)
Method: (§1) NOS activity is measured as the formation of L-[2,3,4,5-^3 H]Citrullinefrom L-[2,3,4,5-^3 H]Arginine. The incubation buffer (100 μL) contained; 100 mM TES, pH 7.5, 5 μM FAD, 5 μM FMN, 10 μM BH4, 0.5 mM NADPH, 0.5 mM DTT, 0.5 mg/mL BSA, 2 mM CaCl2, 10 μg/mL calmodulin (bovine), 1 μM L-Arg, 0.2 μCi L-[2,3,4,5-^3 H]Arg, and the inhibitor in aqueous DMSO (max. 5%). The reaction is initiated by addition of enzyme. Incubations are performed at room temperature for 30 minutes and stopped by the addition of an equal volume of quenching buffer consisting of 200 mM sodium citrate, pH 2.2, 0.02% sodium azide. Reaction products are separated by passing through a cation exchange resin and quantitated as cpm by scintillation counting.

ecNOS = ecNOS (Homo sapiens, UniProt P29474); assay: NOS activity: L-[3H]citrulline formation from L-[3H]arginine, ecNOS; format: biochemical; settings: ecNOS, 1 μM L-Arg, pH 7.5, room temperature, 30 minutes, read-out: ecNOS (IC50)
Method: as §1

ncNOS = ncNOS (Homo sapiens, UniProt P29475); assay: biochemical; settings: ncNOS, 1 μM L-Arg, pH 7.5, room temperature, 30 minutes, read-out: ncNOS (IC50)
Chain of ncNOS (P29475 whole entry): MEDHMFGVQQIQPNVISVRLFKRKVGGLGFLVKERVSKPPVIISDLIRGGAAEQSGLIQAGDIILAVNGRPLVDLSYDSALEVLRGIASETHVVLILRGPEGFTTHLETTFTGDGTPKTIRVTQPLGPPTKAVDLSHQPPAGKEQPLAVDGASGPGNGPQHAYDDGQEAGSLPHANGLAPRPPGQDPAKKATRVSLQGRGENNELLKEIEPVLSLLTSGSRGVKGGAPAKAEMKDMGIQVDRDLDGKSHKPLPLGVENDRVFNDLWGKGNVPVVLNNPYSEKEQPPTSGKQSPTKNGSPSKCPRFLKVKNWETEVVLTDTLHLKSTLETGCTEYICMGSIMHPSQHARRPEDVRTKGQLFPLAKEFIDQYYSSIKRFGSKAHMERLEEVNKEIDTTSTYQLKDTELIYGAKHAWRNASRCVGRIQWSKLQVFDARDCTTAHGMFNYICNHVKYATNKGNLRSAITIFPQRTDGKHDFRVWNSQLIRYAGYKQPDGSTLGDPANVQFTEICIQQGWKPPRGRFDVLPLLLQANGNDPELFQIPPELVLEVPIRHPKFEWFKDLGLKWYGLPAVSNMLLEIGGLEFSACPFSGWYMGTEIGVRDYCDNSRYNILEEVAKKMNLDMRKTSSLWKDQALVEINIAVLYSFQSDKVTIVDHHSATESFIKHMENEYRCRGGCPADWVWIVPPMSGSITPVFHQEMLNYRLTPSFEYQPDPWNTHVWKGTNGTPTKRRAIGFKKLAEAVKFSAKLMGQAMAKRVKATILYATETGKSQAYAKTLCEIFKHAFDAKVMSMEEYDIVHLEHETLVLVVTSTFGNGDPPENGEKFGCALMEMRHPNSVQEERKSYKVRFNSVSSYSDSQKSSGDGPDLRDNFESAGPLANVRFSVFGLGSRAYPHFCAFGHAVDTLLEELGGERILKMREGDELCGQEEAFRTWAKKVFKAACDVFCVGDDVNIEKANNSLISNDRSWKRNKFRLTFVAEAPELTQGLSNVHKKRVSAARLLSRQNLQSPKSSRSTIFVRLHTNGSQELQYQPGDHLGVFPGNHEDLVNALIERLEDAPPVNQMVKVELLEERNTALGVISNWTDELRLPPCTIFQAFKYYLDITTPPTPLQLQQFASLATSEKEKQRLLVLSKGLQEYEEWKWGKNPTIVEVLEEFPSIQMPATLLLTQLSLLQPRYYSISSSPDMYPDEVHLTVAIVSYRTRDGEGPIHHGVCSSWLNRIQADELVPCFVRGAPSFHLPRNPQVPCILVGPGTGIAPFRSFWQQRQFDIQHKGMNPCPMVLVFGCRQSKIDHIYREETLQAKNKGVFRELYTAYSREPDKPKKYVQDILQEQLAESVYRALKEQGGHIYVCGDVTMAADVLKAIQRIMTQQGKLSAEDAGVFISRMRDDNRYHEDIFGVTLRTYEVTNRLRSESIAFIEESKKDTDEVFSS

| Compound | IC50 (iNOS; Table 1) [µM] | IC50 (ecNOS; Table 1) [µM] | IC50 (iNOS; Table 2) [µM] | also measured |
| --- | --- | --- | --- | --- |
| Nc1ccccn1 [Example 1] | 1.4 | < 10 |  | IC50 (ncNOS; Table 1): < 10 µM |
| Cc1cccnc1N [Example 2] | 3.4 | 1.2 |  |  |
| Cc1ccc(N)nc1 [Example 4] | 1.3 | 3.1 |  |  |
| Cc1cccc(N)n1 [Example 5] |  | 0.82 |  |  |
| Cc1cc(C)nc(N)c1 [Example 6] | 0.108 |  |  |  |
| Nc1cc(C(F)(F)F)ccn1 [Example 8] | 13.2 | 73 |  |  |
| Nc1ncccc1O [Example 9] | 47.5 | > 50 |  | IC50 (ncNOS; Table 1): > 50 µM |
| Nc1cccnc1N [Example 10] | < 10 | 1.9 |  |  |
| Nc1cc(-c2ccccc2)ccn1 [Example 11] | > 50 |  |  |  |
| Nc1cc(Cc2ccccc2)ccn1 [Example 12] | > 50 |  |  |  |
| Cc1ccnc(N)c1C [Example 13, 2-Amino-3,4-dimethylpyridine] | 0.076 | < 1 |  |  |
| CC(C)(C)c1ccnc(N)c1 [Example 14, 2-Amino-4-tert-butylpyridine] | > 50 |  |  |  |
| Nc1cc(Cl)ccn1 [Example 15, 2-Amino-4-chloropyridine] | < 1 | < 10 |  | IC50 (ncNOS; Table 1): < 10 µM |
| N#Cc1ccnc(N)c1 [Example 16, 2-Amino-4-cyanopyridine] | > 50 |  |  |  |

Continued, in another order:

| IC50 (iNOS; Table 1) [µM] | IC50 (ecNOS; Table 1) [µM] | IC50 (iNOS; Table 2) [µM] | Compound | also measured |
| --- | --- | --- | --- | --- |
| 0.058 | 0.081 |  | Cc1ccnc(N)c1N [Example 17, 2,3-Diamino-4-methylpyridine] |  |
| 2.4 | < 50 |  | Cc1ccnc(NCc2ccccc2)c1 [Example 18, 2-Benzylamino-4-methylpyridine] |  |
|  |  | < 10 | Cc1ccnc(N)c1NC(=O)NCc1ccccc1 [Example 19, 2-Amino-3-benzylurea-4-picoline] | IC50 (ecNOS; Table 2): > 50 µM; IC50 (ncNOS; Table 2): > 50 µM |
|  |  | > 50 | COc1cccnc1N [Example 20, 2-Amino-3-methoxypyridine] | IC50 (ecNOS; Table 2): < 50 µM; IC50 (ncNOS; Table 2): < 50 µM |
|  |  | < 50 | CSc1c(C)ccnc1N [Example 21, 2-Amino-3-methylthio-4-picoline] | IC50 (ecNOS; Table 2): < 50 µM; IC50 (ncNOS; Table 2): < 10 µM |
|  |  | < 50 | CSCc1ccnc(N)c1 [Example 22, 2-Amino-4-methylthiomethylpyridine] | IC50 (ecNOS; Table 2): > 50 µM; IC50 (ncNOS; Table 2): > 50 µM |
|  |  | < 1 | Cc1ccnc(N)c1CO [Example 23, 2-Amino-3-hydroxymethyl-4-picoline] | IC50 (ecNOS; Table 2): < 1 µM |
|  |  | < 10 | CCc1c(C)ccnc1N [Example 24, 2-Amino-3-ethyl-4-picoline dihydrochloride] | IC50 (ecNOS; Table 2): < 10 µM |
|  |  | < 10 | COCc1c(C)ccnc1N [Example 25, 2-Amino-3-methoxymethyl-4-picoline dihydrochloride] | IC50 (ecNOS; Table 2): < 50 µM; IC50 (ncNOS; Table 2): < 50 µM |
|  |  | < 50 | CCCc1c(C)ccnc1N [Example 26, 2-Amino-3-n-propyl-4-picoline dihydrochloride] |  |
|  |  | < 50 | Cc1ccnc(N)c1N(C)C [Example 27, 2-Amino-3-dimethylamino-4-picoline trihydrochloride] | IC50 (ecNOS; Table 2): > 50 µM; IC50 (ncNOS; Table 2): < 50 µM |
|  |  | > 50 | Nc1ccc(-c2ccccc2)cn1 [Example 39, 2-Amino-5-phenylpyridine] |  |
|  |  | > 50 | Cc1cc(N)ncc1-c1ccccc1 [Example 40, 2-Amino-4-methyl-5-phenylpyridine] |  |
|  |  | > 50 | Cc1cc(N)ncc1C#N [Example 42, 2-Amino-5-cyano-4-methylpyridine] |  |
|  |  | > 50 | COC(=O)c1cnc(N)cc1C [Example 44, 2-Amino-5-methoxycarbonyl-4-methylpyridine] |  |
|  |  | < 10 | Cc1cc(N)ncc1CO [Example 47, 2-Amino-5-hydroxymethyl-4-methylpyridine] |  |
|  |  | < 10 | CCc1ccc(N)nc1 [Example 60, 2-Amino-5-ethylpyridine] | IC50 (ecNOS; Table 2): < 50 µM |
|  |  | < 10 | Nc1cc2c(cn1)CCCC2 [Example 64, 3-Amino-5,6,7,8-tetrahydroisoquinoline] |  |
